How the values were obtained:
[1] = target: T1, Mitogen-activated protein kinase 1 (Homo sapiens, UniProt P28482); test: (§1) Kinase Assay (New): Compound potency against activated ERK2 is determined using a kinase assay that measures ERK2-catalyzed phosphorylation of biotinylated ERKtide peptide substrate ([Biotin]-AHA-KRELVEPLTPSGEAPNQALLR-[NH2], the peptide sequence derived from EGF receptor: SEQ ID NO:1). The assay is carried out in 50 mM HEPES [pH 7.5], 5 mM MgCl2, 1 mM DTT, 0.01% Tween-20, 0.05% BSA using 0.25 nM ERK2, 200 nM ERKtide peptide and 35 uM ATP (all concentrations are final in the reaction) in a total volume of 10.25 uL. A 16-point, half-log dilution series of compounds at 41x final concentration is used for generating IC50 curves. Compound dilution series are prepared in 100% DMSO. ERK2 is preincubated with compounds for 30 minutes at ambient temperature. Reaction is initiated by addition of a substrate cocktail of ERKtide peptide and ATP and is allowed to proceed for 2-3 hours at ambient temperature. Reaction is terminated by addition of 10 uL of a 2x stop buffer consisting of 100 mM Tris-Cl [pH 7.5], 25 mM EDTA, 0.01% Tween 20, 10 ug/mL of AlphaScreen Protein A Acceptor Beads, 10 ug/mL of Streptavidin Donor Beads (PerkinElmer, Waltham, Mass.), and 1.4 ug/mL phospho-EGF Receptor (Thr669) antibody (Cat #3056, Cell Signaling Technology, Danvers, Mass.). Terminated reactions are read, after overnight incubation in the dark, on an EnVision Multilabel Plate Reader (PerkinElmer, Waltham, Mass.), with excitation and emission wavelengths set to 680 nm and 570 nm, respectively. IC50 values are determined using a four-parameter fit.
T1 sequence (P28482 whole entry): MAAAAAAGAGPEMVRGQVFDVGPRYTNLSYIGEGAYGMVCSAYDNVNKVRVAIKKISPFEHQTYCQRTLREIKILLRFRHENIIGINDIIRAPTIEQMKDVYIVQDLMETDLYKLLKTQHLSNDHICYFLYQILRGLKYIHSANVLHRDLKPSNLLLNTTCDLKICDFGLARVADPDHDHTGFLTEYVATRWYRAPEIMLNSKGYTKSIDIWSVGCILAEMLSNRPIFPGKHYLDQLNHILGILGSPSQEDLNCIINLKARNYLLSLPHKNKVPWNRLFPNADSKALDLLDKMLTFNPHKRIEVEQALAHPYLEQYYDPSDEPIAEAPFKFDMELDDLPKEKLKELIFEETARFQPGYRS

[2] = target: T1, Mitogen-activated protein kinase 1; test: The assay was carried out in 20 mM HEPES [pH 7.5], 5 mM MgCl2, 1 mM DTT, 0.01% Tween-20, 0.05% BSA using 0.02 nM ERK2, 400 nM ERKtide peptide and 35 uM ATP (all concentrations are final in the reaction) in a total volume of 10.25 uL. A 16-point, half-log dilution series of compounds at 41x final concentration was used for generating IC50 curves. Compound dilution series were prepared in 100% DMSO. ERK2 was preincubated with compounds for 30 minutes at ambient temperature. Reaction was initiated by addition of a substrate cocktail of ERKtide peptide and ATP and was allowed to proceed for 4 hours at ambient temperature. Reaction was terminated by addition of 10 uL of a 2x stop buffer consisting of 100 mM Tris-Cl [pH 7.5], 25 mM EDTA, 0.01% Tween 20, 20 ug/mL of AlphaScreen Protein A Acceptor Beads, 20 ug/mL of Streptavidin Donor Beads (PerkinElmer, Waltham, Mass.), and 1:1000 dilution phospho-EGF Receptor (Thr669) antibody (Cat #8808, Cell Signaling Technology, Danvers, Mass.). Terminated reactions were read, after overnight incubation in the dark, on an EnVision Multilabel Plate Reader (PerkinElmer, Waltham, Mass.), with excitation and emission wavelengths set to 680 nm and 570 nm, respectively. IC50 values were determined using a four-parameter fit.
[3] = target: T1, Mitogen-activated protein kinase 1; test: as §1, with “AlphaScreen Assay:” for “Kinase Assay (New):”, “Mass.).” for “Mass.). Terminated reactions are read, after overnight incubation in the dark, on an EnVision Multilabel Plate Reader (PerkinElmer, Waltham, Mass.), with excitation and emission wavelengths set to 680 nm and 570 nm, respectively. IC50 values are determined using a four-parameter fit.”

Compound | IC50 [1] | IC50 [2] | IC50 [3]
CS(=O)(=O)[C@H]1CC[C@H](c2cnc(N)c(-c3ccc(C(=O)NCc4ccccc4)c(F)c3)n2)CC1 | 64.4 nM | 29.7 nM | 
Nc1ncc([C@H]2CC[C@H](O)CC2)nc1-c1ccc(C(=O)NCc2cccc(Cl)n2)c(F)c1 |  | 21 nM | 
Nc1ncc([C@H]2CC[C@@H](O)CC2)nc1-c1ccc(C(=O)NCc2cccc(Cl)n2)c(F)c1 |  | 159 nM | 
Cc1nn(C(F)F)cc1-c1cnc(N)c(-c2ccc(C(=O)N[C@H](CO)c3cccc(Cl)c3)c(F)c2)c1 |  | 0.0245 nM | 
Cn1cc(-c2cnc(N)c(-c3ccc(C(=O)N[C@H](CO)c4ccccc4)c(F)c3)c2F)cn1 | 9.77 nM |  | 
CC(C)n1cc(-c2cnc(N)c(-c3ccc(C(=O)N[C@H](CO)c4ccccc4)c(F)c3)c2)cn1 | 2.06 nM |  | 
Nc1ncc(C2CCOCC2)nc1-c1ccc(C(=O)N[C@H](CO)C2CCCCC2)c(F)c1 | 26.5 nM |  | 
Cn1ccc(-c2cnc(N)c(-c3ccc(C(=O)N[C@H](CO)c4cccc(Cl)c4)c(F)c3)c2)n1 |  | 0.0937 nM | 

More lines, now with the values ahead:

IC50 [1] | IC50 [2] | IC50 [3] | Compound
 | 1.31 nM | 20.6 nM | Nc1ncc(N2CCOCC2)cc1-c1ccc(C(=O)N[C@H](CO)c2ccccc2)c(F)c1
1.41 nM |  |  | Cc1nn(C)cc1-c1cnc(N)c(-c2ccc(C(=O)N[C@H](CO)c3ccccc3)c(F)c2)c1
 | 3.04 nM | 5.24 nM | Nc1cc(-c2cc(C3CCOCC3)cnc2N)ccc1C(=O)N[C@H](CO)c1ccccc1
